The source of these data is PubChem BioAssay AID743394 (Broad Institute, 2014).

SMILES strings stand for the structures. Calls of active or inactive are those of the source.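 How the source made its calls: active means 40% activation versus positive control reached by fitted dose-response curve at or below highest valid tested dose; inconclusive means poor fit quality, or flat fit with activation between 30% and 70%; inactive means the rest.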

The first assay is described as follows: inactive X chromosome reactivation in XiGFP fibroblasts, dose response, imaging, 68-5-11 mouse fibroblasts, GFP, cherry-pick (AID 743394).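 Further: sensitizer 5-aza-dC present in the wells at 0.5 mM final.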 The settings on record: 68-5-11 mouse fibroblast XiGFP reporter, % GFP-positive imaging, 3 d; at 19.5 µM (top of the series); cells co-treated with 5-aza-dC sensitizer; scaled: neutral wells 0, ellipticine wells 100.
Turning to `COc1cc(NC(C)CCc2ccccc2)cc(OC)c1OC` (stereo unspecified), the activation was -0.035% (inactive).
For `CCCCCC[n+]1ccccc1/C=C/c1ccc(N(C)C)cc1`, the activation is 6.32% (inactive).
For the molecule `CCN(CC)CCCN=Cc1c(O)n(-c2cccc(C)c2)c(=O)c2ccccc12`, the activation is -0.005% (inactive).
Still for that read-out and setting: for `COc1ccc(C)c(-n2c(=O)n(Cc3ccccc3)c(=O)c3[nH]cnc32)c1` the value was -0.006% (inactive); for `CN1OC[C@@H]2CN(Cc3ccccc3)[C@H](c3cccc(N4CCOCC4)c3)C[C@@H]21`, 0.022% (inactive).
`Cc1cc(N)ncc1[N+](=O)[O-]`: the activation was 0.508% (inactive).
As for `Cc1nnc(-c2ccc(N3CCCCCC3)c([N+](=O)[O-])c2)o1`, the activation was -0.007% (inactive).
On to `CC(C)OC(=O)/C(=C\c1cccnc1)NC(=O)c1ccccc1`, for which the activation was -0.024% (inactive).
As to `Cc1ccc(S(=O)(=O)N(C)c2ccc(C)c([N+](=O)[O-])c2)cc1`, the activation was 0.488% (inactive).
In the case of `COC(=O)c1cnn(-c2ccccc2)c1N`, the activation is 0.12% (inactive).
Same read-out and setting: for `CC1CN(Cc2c(O)ccc3c2oc(=O)c2ccccc23)CC(C)O1` (stereo unspecified) the value was -0.012% (inactive); for `Nc1nc(Nc2ccc(Cl)cc2)c(NC=O)c(=O)[nH]1`, -0.075% (inactive); for `CCCNNC(=O)C(O)(c1ccccc1)c1ccccc1`, -0.099% (inactive).
On the same count and under the same terms, for `Cn1c(=N)n(CC(=O)c2ccccc2)c2ccccc21` the value was 0.105% (inactive); for `Cc1ccc2c(COC(=O)C34CC5CC(CC(C5)C3)C4)cc(=O)oc2c1`, -0.07% (inactive); for `COc1ccc(/C=c2/sc3nc(-c4ccccc4)c(-c4ccccc4)n3c2=O)cc1`, -0.002% (inactive).
On the same count and under the same terms, under `CN(C)CCN(C(=O)c1ccc(S(=O)(=O)N(C)c2ccccc2)cc1)c1nc2cc3c(cc2s1)OCCO3` stands -0.008% (inactive).
With `CCOC(=O)c1nn(-c2ccc3ccccc3c2)cc1O`, the activation is 0.359% (inactive).
With `C[C@H](CO)N1C[C@H](C)[C@H](CN(C)Cc2ccccc2)Oc2ccc(NS(C)(=O)=O)cc2C1=O`, the activation was -0.035% (inactive).
The same measure, in the same setting: under `Nc1nnc(SCC(=O)c2ccc([N+](=O)[O-])cc2)s1` stands 0.961% (inactive); under `CN(C)C(=O)C[C@@H]1C=C[C@H](NS(=O)(=O)c2ccccc2)[C@@H](CO)O1`, 0.689% (inactive); under `O=C1C2C3C=CC(CNS(=O)(=O)c4ccccc4[N+](=O)[O-])(O3)C2C(=O)N1c1ccccc1` (stereo unspecified), 0.059% (inactive).
Still for that read-out and setting: for `COc1cccc(CNC(=O)c2cc(S(=O)(=O)N3CCCC3)cn2C)c1` the value was 0.095% (inactive); for `CCOCCCn1c(=NC(C)=O)c(C#N)cc2c(=O)n3cccc(C)c3nc21`, 0.035% (inactive).
Same read-out and setting: for `O=C(COC(=O)c1cc(=O)[nH]c(=O)[nH]1)Nc1cccc(S(=O)(=O)N2CCCCC2)c1` the value was 0.052% (inactive); for `CN(C)c1ccc(NC2=C(Cl)C(=O)c3ccccc3C2=O)cc1`, -0.053% (inactive); for `CCOc1ccc(C(=O)c2cc([N+](=O)[O-])ccc2N2CCOCC2)cc1`, 0.569% (inactive).
As for `CCOC(=O)c1sc(-c2ccc(F)cc2)cc1NC(=O)Nc1ccccc1OC`, the activation was 0.169% (inactive).
On the same count and under the same terms, under `COc1ccc(C2=C(c3ccccc3)OC(OC)c3cc(F)ccc32)cn1` (stereo unspecified) stands 0.027% (inactive); under `CCOC(=O)N1CCN(C(=O)Cn2ccc3c(OC)cccc3c2=O)CC1`, 0.07% (inactive); under `Cc1nc(NC(=O)C(Cl)Cl)sc1C(=O)N(C)C`, -0.034% (inactive).
The same measure, in the same setting: for `Cc1ccc(-c2nc3ccc(Br)cn3c2Cc2ccccc2C(F)(F)F)cc1` the value was 0.06% (inactive).
Turning to `CC1CN(C(=O)/C=C/c2ccc([N+](=O)[O-])s2)CC(C)O1` (stereo unspecified), the activation is -0.075% (inactive).
Same read-out and setting: under `CC1Oc2ccccc2C=C1/C=N\NC(=O)c1cccnc1` (stereo unspecified) stands 0.047% (inactive); under `CCOC(=O)C1=C(C)NC(=S)NC1/C=C/c1ccccc1` (stereo unspecified), -0.024% (inactive); under `CO[C@H]1CN(C)C(=O)c2ccc(NC(=O)Cc3ccccc3)cc2OC[C@@H](C)N(C)C[C@H]1C`, -0.035% (inactive).
As for `COC(=O)Nc1ccc(S(=O)(=O)N2CCCC(C(=O)N3CCN(C)CC3)C2)cc1` (stereo unspecified), the activation was 0.221% (inactive).
Regarding `COc1ccc(C(=O)N/N=C/c2cc(Br)ccc2O)cc1OC`, the activation is -0.037% (inactive).
Still for that read-out and setting: for `COc1ccc(-c2ccc3[nH]c4c(c3c2)CCN2C(=O)[C@@H]([C@H](C)O)[C@@H](N(C)C(=O)Nc3ccc(F)cc3)C[C@@H]42)cc1` the value was 1.96% (inactive); for `Cc1[nH]c2ccccc2c1/C=N/Nc1nc2ccccc2[nH]1`, -0.075% (inactive); for `CC1CCCC(NC(=O)CSc2cccc[n+]2[O-])C1C` (stereo unspecified), 0.125% (inactive).
For the molecule `COc1ccc(N=Nc2ccc(O)c(P(=O)(c3ccccc3)c3ccccc3)c2)cc1`, the activation was 0.015% (inactive).
Still for that read-out and setting: for `Cc1ccc(S(=O)(=O)N(C)C[C@H]2OCCCC[C@@H](C)Oc3ccc(NC(=O)Nc4c(C)noc4C)cc3C(=O)N([C@H](C)CO)C[C@@H]2C)cc1` the value was -0.011% (inactive).
The same measure, in the same setting: for `O=C(Nc1c(Cl)cccc1Cl)Oc1cccc2cccnc12` the value was -0.037% (inactive); for `O=C(O)c1ccccc1NS(=O)(=O)c1ccc(N/N=C/c2cccc(O)c2O)c([N+](=O)[O-])c1`, -0.035% (inactive).
The same measure, in the same setting: for `COc1ccc(Cl)cc1C(=O)Nc1ccccc1N1CCCCC1` the value was 1.48% (inactive); for `O=C(N/N=C/c1ccc(Br)s1)c1ccc([N+](=O)[O-])cc1`, 1.59% (inactive).
Regarding `CCN1C(=O)C(=Cc2cccc(OC)c2Oc2ccc([N+](=O)[O-])cc2[N+](=O)[O-])SC1=S`, the activation is -0.008% (inactive).
Take `CC(C)(C=O)C1=CC(=O)c2ccccc2C1=O`: the activation was -0.07% (inactive).
Consider `COC(=O)c1sc(-c2ccc(C(C)(C)C)cc2)cc1NC(=O)c1ccccc1C(=O)O`, for which the activation was -0.053% (inactive).
On the same count and under the same terms, under `ClC1CCCCC1n1nnc2ccccc21` (stereo unspecified) stands 0.006% (inactive); under `Cn1c(=O)[nH]c(=O)c2c1nc(SCCN1CCOCC1)n2CCCc1ccccc1`, -0.047% (inactive).
Same read-out and setting: for `CC(=O)N/C(N)=N/c1nc(=O)c2ccccc2s1` the value was -0.044% (inactive); for `Cc1ccc(/C=C/C(=O)N2CCN(S(=O)(=O)/C=C/c3ccccc3)CC2)o1`, 0.382% (inactive); for `C[C@@H]1CN([C@H](C)CO)C(=O)c2cc(NS(=O)(=O)c3ccc(F)cc3)ccc2O[C@@H](C)CCCCO[C@@H]1CN(C)Cc1ccc2c(c1)OCO2`, 9.16% (inactive).
On to `CC(C)CC#Cc1ccc([C@@H]2[C@@H](CO)N3C(=O)CN(C(=O)c4cccc(F)c4)C[C@H]23)cc1`, for which the activation was 0.027% (inactive).
Same read-out and setting: for `Cc1ccc2[nH]c(C(=O)O)c(NC(=O)[C@@H]3C[C@@H]3c3ccccc3)c2c1` the value was -0.035% (inactive); for `COc1ccc(-c2ccc(C(=O)NCc3cccs3)c3occc23)c(C)c1`, -0.032% (inactive); for `COc1ccc(N2CCN(C(=O)c3cc4c(s3)-c3ccccc3OC4)CC2)cc1`, 0.457% (inactive).
In the case of `Cc1ccc(S(=O)(=O)Nc2ccc3c(c2)C(=O)N([C@H](C)CO)C[C@@H](C)[C@@H](CN(C)Cc2ccc(Cl)c(Cl)c2)OCCCC[C@H](C)O3)cc1`, the activation was -0.031% (inactive).
`CC(OCCN(C)C)C(=O)C12CC3CC(CC(C3)C1)C2` (stereo unspecified): the activation was 0.008% (inactive).
Still for that read-out and setting: for `Cc1ccc(N2C(=O)C3C4C=CC(CNC(=S)N5CCN(c6ccccc6)CC5)(O4)C3C2=O)cc1` (stereo unspecified) the value was -0.008% (inactive); for `C[C@@H]1CN([C@H](C)CO)C(=O)c2cc(NS(=O)(=O)c3ccccc3)ccc2O[C@@H](C)CCCCO[C@@H]1CN(C)Cc1ccc2c(c1)OCO2`, 0% (inactive).
The same measure, in the same setting: under `CCN(CC)c1ccc(N=Cc2ccc([N+](=O)[O-])o2)cc1` stands 0.626% (inactive); under `C[C@@H]1ON(C)[C@H]2C[C@H]3c4cc(-c5cccc(F)c5)ccc4CCN3C(=O)[C@@H]12`, 0.187% (inactive).
`CC1C=NC(S(=O)(=O)N2CC[C@@H]3[C@@H](CO)N(C)c4ccc(-c5ccccc5)cc4[C@@H]32)=N1` (stereo partly specified): the activation is 0.053% (inactive).
As to `Cc1ccc(C(=O)Cn2cncn2)cc1`, the activation was -0.053% (inactive).
For `CC(C)NC(=O)N(C)C[C@@H]1OCCCC[C@H](C)Oc2ccc(NC(=O)Nc3ccc(C(F)(F)F)cc3)cc2C(=O)N([C@H](C)CO)C[C@@H]1C`, the activation is 0.005% (inactive).
Same read-out and setting: under `COc1ccc2nc(SCC(=O)Nc3ccccc3OC)[nH]c2c1` stands -0.024% (inactive); under `CNc1ncnc(Sc2ccc(Cl)cc2)c1[N+](=O)[O-]`, 0.297% (inactive); under `Cc1ccc(-c2ccc3c(c2)O[C@@H](CN(C)Cc2ccncc2)[C@@H](C)CN([C@@H](C)CO)S3(=O)=O)cc1`, 0% (inactive).
For the molecule `COC(=O)c1ccc(NC(=O)c2nc(S(=O)(=O)Cc3cccc(C)c3)ncc2Cl)cc1`, the activation was -0.008% (inactive).
Same read-out and setting: for `COc1ccc2c3c([nH]c2c1)[C@@H](CO)N(Cc1cc(F)ccc1F)CC31CCN(C(C)=O)CC1` the value was -0.023% (inactive).
Still for that read-out and setting: under `CCN(CC)c1ccc(/C=C/C(=O)C2C(=O)C=C(C)OC2=O)cc1` (stereo unspecified) stands 3.58% (inactive).
Take `Cc1ccc(C(=O)NCc2ccccn2)cc1NC1=NC2CS(=O)(=O)CC2S1` (stereo unspecified): the activation is 0.151% (inactive).

The assay is the same for the next values; noted with them: 68-5-11 mouse fibroblast XiGFP reporter, % GFP-positive imaging, 3 d; at 21 µM (top of the series); cells co-treated with 5-aza-dC sensitizer; scaled: neutral wells 0, ellipticine wells 100.
Turning to `Cc1ccc(-c2ccccc2[C@@H]2[C@H](C#N)N(S(C)(=O)=O)[C@H]2CO)cc1`, the activation is 0.241% (inactive).
